Test: gradient 5% acetonitrile 3 min, to 50% in 2 min, to 85% in 15 min, held 3 min, 100 µL/min
Settings: column: Zorbax Extend-C18 2.1 x 50 mm; eluents: water / acetonitrile, 0.1% formic acid
Procedure, shortened: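 Pure standards were analyzed in mixtures of ~100 molecules using HPLC coupled to a quadrupole time-of-flight mass spectrometer, in both positive and negative ionization mode. Separation used a Zorbax Extend-C18 column (2.1 × 50 mm, 1.8 μm) at 100 μL/min, with water and acetonitrile each containing 0.1% formic acid. Dead and dwell volumes were 40 μL and 900 μL, and data were collected over 3 months. Retention time was read from computationally picked adduct peaks, each inspected manually.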

Row | SMILES | RP-LC retention time
1 | C[C@H]1CC[C@@H]2[C@@H](C)[C@H]3[C@H](C[C@H]4[C@@H]5CC[C@H]6C[C@@H](O)CC[C@]6(C)[C@H]5CC[C@]34C)N2C1 | 763 s
2 | O=C(NCCCN1CCCC1=O)C(=O)Nc1nccs1 | 578 s
3 | Cc1ccc(Cn2c(=O)c3sccc3n(Cc3nc(-c4ccc(OC(C)C)cc4)no3)c2=O)cc1 | 1280 s
4 | Cc1ccc(C(C)C)cc1NC(=O)Nc1ccc([N+](=O)[O-])cc1 | 1160 s
5 | O=C(Cn1cccn1)NC1CCc2nnc(C3CC3)n2CC1 (stereo not drawn) | 543 s
6 | CCOC(=O)C1CCN(S(=O)(=O)c2ccc(Cl)c(-c3nnc(-c4ccccc4)o3)c2)CC1 | 1130 s
7 | CCOc1ccc(-c2nc(C3CC(=O)N(c4ccc(Cl)cc4)C3)no2)cc1OCC (stereo not drawn) | 1150 s
8 | O=C(Nc1c(-c2ccc(F)cc2)nc2ccccn12)c1ccccc1F | 639 s
9 | CN(Cc1ccccc1)C(=O)CCNc1c(-c2cccc(F)c2)nc2cnccn12 | 814 s
10 | CC(=O)N1CCC(C2CCN(C(=O)CN3CCCC3=O)C2)CC1 (stereo not drawn) | 580 s
11 | COCc1cc(=O)n(CC(=O)Nc2cc(C)ccc2C)c(N2CCOCC2)n1 | 844 s
12 | CCCC(=O)Nc1cccc(NC(=O)c2ccccc2Br)c1 | 863 s
13 | COc1ccc(C(=O)Nc2cccn3c(C)nnc23)cc1F | 667 s
14 | Cc1ccc(CNC(=O)Cc2nnc(-c3cnccn3)o2)cc1C | 720 s
15 | Cc1sc(-c2nnc(C3CC3)o2)cc1NC(=O)c1ccc(N(C)C)cc1 | 963 s
16 | COc1cccc(C(=O)N2C[C@@H]3C[C@H]2C[C@@H]3NC(=O)c2cccs2)c1OC | 698 s
17 | CCn1c(=O)oc2cc(-c3noc(-c4cccc(F)c4)n3)ccc21 | 1110 s
18 | CC(C)(C)c1ccc(OCCCC(=O)Nc2nc(-c3ccccc3)cs2)cc1 | 1300 s
19 | Cc1ccc(-c2cn3ccn(-c4ccc(Cl)cc4)c(=O)c3n2)cc1 | 905 s
20 | COC(=O)Nc1ccc(CC(=O)NCc2cccs2)cc1 | 662 s
21 | Cc1nc(-c2cnccn2)n(CC(=O)Nc2cccc(Cl)c2)c(=O)c1C | 792 s
22 | COC1C(=O)N(CC2CC2)C12CCN(S(=O)(=O)c1cccc3cccnc13)CC2 (stereo not drawn) | 790 s

Row | SMILES | RP-LC retention time
23 | Cc1nnc(C2CC3(CCN(CCO)CC3)CN2CCc2ccccc2)o1 (stereo not drawn) | 574 s
24 | COCC(=O)Nc1cnc(-c2ccccc2)nc1 | 729 s
25 | O=C(COc1ccc(F)c(F)c1)N1CCC(Nc2cccnc2)C1 (stereo not drawn) | 604 s
26 | CCC(=O)N(C1CCOCC1)C1CCN(S(=O)(=O)c2cc(C)ccc2C)CC1 | 908 s
27 | Cc1ccc(Nc2c(-c3ccc(Br)cc3)nc3cnccn23)cc1 | 1100 s
28 | O=C(Cc1c(F)cccc1Cl)NC1CCN(c2cc(-c3ccc(F)cc3)[nH]n2)C1 (stereo not drawn) | 760 s
29 | Cc1noc(C)c1CN1CCC(n2c(C)cnc2-c2ccncc2)C1 (stereo not drawn) | 525 s
30 | Cc1cc2c(cc1S(=O)(=O)N1CCCC1C(=O)NCC(C)c1ccccc1)OCC(=O)N2 (stereo not drawn) | 799 s
31 | O=C1CC(c2nc(-c3cccnc3)no2)CN1c1ccc2c(c1)OCO2 (stereo not drawn) | 728 s
32 | O=C1NC2(CCN(C(=O)c3cc(F)cc(F)c3)CC2)Nc2cc(Cl)ccc21 | 774 s
33 | O=C(CN1CCc2nc(NC(=O)C3CC3)sc2C1)Nc1ccccc1C(F)(F)F | 620 s
34 | COc1ccc(C)cc1NC(=O)NCCc1cn(C)c2ncccc12 | 676 s
35 | Cc1ccc(S(=O)(=O)N2CCCCC2c2nncn2C)cc1F (stereo not drawn) | 736 s
36 | O=C(CCSc1ccccc1)N1CC(c2nc(-c3cccc(Cl)c3)no2)C1 | 1020 s
37 | COCCOc1ccc(N2CCN(CCn3ncc4c3nc(N)n3nc(-c5ccco5)nc43)CC2)cc1 | 665 s
38 | CCN(CC)S(=O)(=O)c1ccc2c(c1)N(CC(=O)N1CCCCCC1)C(=O)C1CCCCN21 (stereo not drawn) | 996 s
39 | Cc1ccc(S(=O)(=O)N2CCCCCC2)cc1-c1nnc(-c2ccc(F)cc2)o1 | 1220 s
40 | Cc1cccc(CCNC(=S)Nc2ccc3nc(N4CCN(C)CC4)cc(C)c3c2)c1 | 618 s
41 | CCCc1cc(N2CCN(C(=O)c3cccnc3)CC2)nc2nnc(CC)n12 | 580 s
42 | COc1ccc(N2C=C(C(=O)N3CCOCC3)S(=O)(=O)c3ccc(F)cc32)cc1 | 778 s
43 | O=C(COc1ccccc1-c1nnc(-c2ccccc2)o1)N1CCN(C(=O)c2ccco2)CC1 | 760 s
44 | CCc1noc([C@@H]2CC(F)(F)CN2C(=O)c2cnco2)n1 | 690 s

Row | SMILES | RP-LC retention time
45 | O=S(=O)(c1cccc(-c2nc(-c3ccccc3)no2)c1)N1CCN(C2CCCCC2)CC1 | 840 s
46 | COc1ccc(-c2nnc(-c3ccc(C)c(S(=O)(=O)N4CCC(C)CC4)c3)o2)cc1OC | 1150 s
47 | COc1ccc(OC)c(NC(=O)C2CCCN(S(=O)(=O)Cc3ccc(Cl)cc3)C2)c1 (stereo not drawn) | 1050 s
48 | O=C(NCCc1c[nH]c2ccc(Cl)cc12)c1cn2cc(Cl)ccc2n1 | 886 s
49 | Clc1ccc(-c2nc(N3CCC4(CC3)OCCO4)c3ccccc3n2)cc1 | 822 s
50 | C=CCN1C(=O)COc2ccc(-c3csc(NC(=O)c4cccc(Cl)c4)n3)cc21 | 1070 s
51 | CCCNc1cc(N2CCC(CCC(=O)NCc3cccc(F)c3)CC2)ncn1 | 696 s
52 | Cc1sc(C)c(S(=O)(=O)NC2CC2)c1-c1cc(C(F)(F)F)on1 | 1070 s
53 | COc1ccc(-c2nccc(C3CCCN(C(=O)c4ccccc4)C3)n2)cc1 (stereo not drawn) | 967 s
54 | COc1ccc(-c2noc(-c3ccc(N4CCN(c5ccccn5)CC4)nc3)n2)cc1 | 764 s
55 | Cc1nc2c(n1C)CN(C(=O)c1ccc(Cl)s1)CC2 | 574 s
56 | Cc1cccc(NS(=O)(=O)c2cc3c(s2)CCN(C(=O)C2CCC2)C3)c1C | 942 s
57 | CCN(CC)CCN(CC(=O)N1CCNCC1)S(=O)(=O)c1ccc(C)c(C)c1 | 576 s
58 | O=C(NC1CCCCC1)N1CCC(c2noc(-c3cccnc3)n2)C1 (stereo not drawn) | 749 s
59 | CC(C)c1ccc(N2C(=O)CN(S(C)(=O)=O)CC2(C)C(=O)NCc2ccc(F)cc2)cc1 (stereo not drawn) | 836 s
60 | O=C(CCNc1cnc2cnccn12)NCc1ccccc1C(F)(F)F | 585 s
61 | NC(=O)c1n[nH]c2c1CCCCCC2 | 644 s
62 | CCOc1ccc(CC(=O)Nc2cc3c(cc2N(C)C)n(C)c(=O)c(=O)n3C)cc1OCC | 763 s
63 | O=C(CN1CC=C(c2cnn(-c3ccc(F)cc3)c2)CC1)N1CCN(c2ccccn2)CC1 | 566 s
64 | CCS(=O)(=O)c1ccc2c(c1)N(Cc1nc(-c3ccccc3)no1)C(=O)CO2 | 865 s
65 | COC1C(=O)N(CC2CC2)C12CCN(C(=O)C1CCOCC1)CC2 (stereo not drawn) | 638 s
66 | CN1C(=O)[C@H]2CN(Cc3ccc(N(C)C)cc3)C[C@H]2C1=O | 525 s

Row | SMILES | RP-LC retention time
67 | O=C(NCC(=O)N1CCc2ccccc21)c1ccc(=O)[nH]c1 | 599 s
68 | CC1CCCN(c2nc(-c3ccc(Cl)cc3)nc3ccccc23)C1 (stereo not drawn) | 941 s
69 | CN(C(=O)CC(=O)Nc1ccc2nc3n(c(=O)c2c1)CCCCC3)c1ccccc1F | 682 s
70 | CCN1C(=O)C(C)(C(=O)Nc2cc(OC)cc(OC)c2)Oc2cccnc21 (stereo not drawn) | 868 s
71 | CCOC(=O)c1c(C)[nH]c(C)c1S(=O)(=O)N1CCC(C(=O)NCCc2sccc2C)CC1 | 794 s
72 | CCc1ccc(S(=O)(=O)N2CCC(C(=O)NCc3csc(-c4ccccc4)n3)CC2)cc1 | 999 s
73 | O=C(Cn1ncc2c(c1=O)N(C1CC1)C(=O)CS2)NCCC1=CCCCC1 | 754 s
74 | CCn1nnc2cc(-c3noc(CNC(=O)c4ccccc4)n3)ccc21 | 772 s
75 | Fc1ccc(-c2noc(Cc3nc(-c4cccc(Cl)c4)cs3)n2)cc1 | 1350 s
76 | Cc1noc2ncn(CC(=O)Nc3ccccc3Br)c(=O)c12 | 761 s
77 | Cc1cccc(CNC(=O)c2cc3n(n2)CC(C)(C(=O)NCc2ccccc2)N(C)C3=O)c1 (stereo not drawn) | 732 s
78 | Cn1cc(CN2CCC(C(=O)NC3CCN(Cc4ccccc4)CC3)CC2)c2cc(Cl)ccc21 | 593 s
79 | COc1cc(NC(=O)NC2CCN(c3ccccc3)C2=O)cc(OC)c1 (stereo not drawn) | 768 s
80 | COc1ccccc1-c1nc(Cn2nnc(-c3nc(-c4ccccc4)no3)c2C)c(C)o1 | 1140 s
81 | CCCC(=O)Nc1cnc(N2CCNCC2)c(C(=O)N(CC(C)C)CC(C)C)c1 | 652 s
82 | CC(NC(=O)c1c(O)c2sccc2[nH]c1=O)c1ccncc1 (stereo not drawn) | 564 s
83 | Cn1cc(CN2CCn3c(nnc3[C@@H]3C[C@@H](O)CN3Cc3cccnc3)C2)c2ccccc21 | 575 s
84 | Cc1ccccc1NC(=O)Cn1nc(N2CCC(C)CC2)c2ccccc2c1=O | 1110 s
85 | CN(C)c1cnc(-n2cc(NC(=O)c3cccc(N(C)C)c3)cn2)nc1 | 672 s
86 | Cn1ccc(CN2CCC(Cc3ccccc3)CC2)cc1=O | 611 s
87 | Cc1cc(C)c(S(=O)(=O)N2CCc3c(c(CN4CCCC4)nn3C)C2)c(C)c1 | 686 s
88 | O=C(Cc1cc(-c2ccco2)on1)Nc1ccc(F)c(F)c1F | 838 s
